How the values were obtained:
Assay type in all cases: in vivo
[1] = tested on: ragweed (common ragweed, Ambrosia elatior); assay: Test A postemergence; conditions: Ambrosia artemisiifolia, post-emergence, 240 h, 125 g ai/ha, Postemergence; visual injury after approximately 10 d; 0 to 100 scale where 0 is no effect and 100 is complete control; read-out: Plant response rating, Ragweed
Procedure, shortened: (§1)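 Treatment is preemergence as a directed soil spray after planting, or postemergence at the one- to two-leaf stage, with test chemical in a non-phytotoxic solvent mixture plus surfactant. Plants stay in the greenhouse about 10 d before visual injury scoring on a 0 to 100 scale versus untreated controls.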

corn (Zea mays) = assay: Test A postemergence; conditions: Zea mays, post-emergence, 240 h, 125 g ai/ha, Postemergence; visual injury after approximately 10 d; 0 to 100 scale where 0 is no effect and 100 is complete control
Procedure, shortened: as §1

[2] = tested on: Galium (catchweed bedstraw, Galium aparine); assay: Test A postemergence; conditions: Galium, post-emergence, 240 h, 125 g ai/ha, Postemergence; visual injury after approximately 10 d; 0 to 100 scale where 0 is no effect and 100 is complete control; read-out: Plant response rating, Galium
Procedure, shortened: as §1

[3] = tested on: ryegrass, Italian (Italian ryegrass, Lolium multiflorum); assay: Test A postemergence; conditions: Lolium multiflorum, post-emergence, 240 h, 125 g ai/ha, Postemergence; visual injury after approximately 10 d; 0 to 100 scale where 0 is no effect and 100 is complete control; read-out: Plant response rating, Ryegrass, Italian
Procedure, shortened: as §1

Kochia (Kochia scoparia) [4] = assay: Test A postemergence; conditions: Bassia scoparia, post-emergence, 240 h, 125 g ai/ha, Postemergence; visual injury after approximately 10 d; 0 to 100 scale where 0 is no effect and 100 is complete control; read-out: Plant response rating, Kochia
Procedure, shortened: as §1

[5] = tested on: blackgrass (Alopecurus myosuroides); assay: Test A postemergence; conditions: Alopecurus myosuroides, post-emergence, 240 h, 125 g ai/ha, Postemergence; visual injury after approximately 10 d; 0 to 100 scale where 0 is no effect and 100 is complete control; read-out: Plant response rating, Blackgrass
Procedure, shortened: as §1

[6] = tested on: giant foxtail (Setaria faberii); assay: Test A postemergence; conditions: Setaria faberi, post-emergence, 240 h, 125 g ai/ha, Postemergence; visual injury after approximately 10 d; 0 to 100 scale where 0 is no effect and 100 is complete control; read-out: Plant response rating, Foxtail, Giant
Procedure, shortened: as §1

[7] = tested on: pigweed (Amaranthus retroflexus); assay: Test A postemergence; conditions: Amaranthus retroflexus, post-emergence, 240 h, 125 g ai/ha, Postemergence; visual injury after approximately 10 d; 0 to 100 scale where 0 is no effect and 100 is complete control; read-out: Plant response rating, Pigweed
Procedure, shortened: as §1

[8] = tested on: wheat (Triticum aestivum); assay: Test A postemergence; conditions: Triticum aestivum, post-emergence, 240 h, 125 g ai/ha, Postemergence; visual injury after approximately 10 d; 0 to 100 scale where 0 is no effect and 100 is complete control; read-out: Plant response rating, Wheat
Procedure, shortened: as §1

[9] = tested on: barnyardgrass (Echinochloa crus-galli); assay: Test B flooded paddy test; conditions: Echinochloa crus-galli, Flood, 250 g ai/ha; scale of 0 to 100 where 0 is no effect and 100 is complete control; read-out: Barnyardgrass plant response rating
Procedure, shortened: (§2)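 Rating scale 0–100 (visual, vs untreated controls) after a 13–15 d greenhouse period; application to the flood layer, 3 cm above soil and maintained; plants at 2-leaf stage when treated.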

[10] = tested on: ducksalad (Heteranthera limosa); assay: Test B flooded paddy test; conditions: Heteranthera limosa, Flood, 250 g ai/ha; scale of 0 to 100 where 0 is no effect and 100 is complete control; read-out: Ducksalad plant response rating
Procedure, shortened: as §2

[11] = tested on: sedge, umbrella (small-flower umbrella sedge, Cyperus difformis); assay: Test B flooded paddy test; conditions: Cyperus difformis, Flood, 250 g ai/ha; scale of 0 to 100 where 0 is no effect and 100 is complete control; read-out: Sedge, Umbrella plant response rating
Procedure, shortened: as §2

rice (Oryra sativa) = assay: Test B flooded paddy test; conditions: Oryza sativa, Flood, 250 g ai/ha; scale of 0 to 100 where 0 is no effect and 100 is complete control; read-out: Rice plant response rating
Procedure, shortened: as §2

[12] = tested on: ragweed (common ragweed, Ambrosia elatior); assay: Test A preemergence; conditions: Ambrosia artemisiifolia, pre-emergence, 240 h; for pest or weed control at 500 g/ha: 500 g ai/ha, preemergence, visual injury rating about 10 d after treatment, 0 to 100 scale (0 no effect, 100 complete control), read-out: Ragweed plant response rating; for pest or weed control at 125 g/ha: 125 g ai/ha, Preemergence, visual injury rating after approximately 10 d, read-out: Ragweed plant response rating (0 to 100 scale, 0 is no effect, 100 is complete control)
Procedure, shortened: as §1

[13] = tested on: barnyardgrass (Echinochloa crus-galli); assay: Test A preemergence; conditions: Echinochloa crus-galli, pre-emergence, 240 h; for pest or weed control at 125 g/ha: 125 g ai/ha, Preemergence, visual injury rating after approximately 10 d, read-out: Barnyardgrass plant response rating (0 to 100 scale, 0 is no effect, 100 is complete control); for pest or weed control at 500 g/ha: 500 g ai/ha, preemergence, visual injury rating about 10 d after treatment, 0 to 100 scale (0 no effect, 100 complete control), read-out: Barnyardgrass plant response rating
Procedure, shortened: as §1

[14] = tested on: ryegrass, Italian (Italian ryegrass, Lolium multiflorum); assay: Test A preemergence; conditions: Lolium multiflorum, pre-emergence, 240 h; for pest or weed control at 125 g/ha: 125 g ai/ha, Preemergence, visual injury rating after approximately 10 d, read-out: Ryegrass, Italian plant response rating (0 to 100 scale, 0 is no effect, 100 is complete control); for pest or weed control at 500 g/ha: 500 g ai/ha, preemergence, visual injury rating about 10 d after treatment, 0 to 100 scale (0 no effect, 100 complete control), read-out: Ryegrass, Italian plant response rating
Procedure, shortened: as §1

Kochia (Kochia scoparia) [15] = assay: Test A preemergence; conditions: Bassia scoparia, pre-emergence, 240 h; for pest or weed control at 125 g/ha: 125 g ai/ha, Preemergence, visual injury rating after approximately 10 d, read-out: Kochia plant response rating (0 to 100 scale, 0 is no effect, 100 is complete control); for pest or weed control at 500 g/ha: 500 g ai/ha, preemergence, visual injury rating about 10 d after treatment, 0 to 100 scale (0 no effect, 100 complete control), read-out: Kochia plant response rating
Procedure, shortened: as §1

[16] = tested on: giant foxtail (Setaria faberii); assay: Test A preemergence; conditions: Setaria faberi, pre-emergence, 240 h; for pest or weed control at 125 g/ha: 125 g ai/ha, Preemergence, visual injury rating after approximately 10 d, read-out: Foxtail, Giant plant response rating (0 to 100 scale, 0 is no effect, 100 is complete control); for pest or weed control at 500 g/ha: 500 g ai/ha, preemergence, visual injury rating about 10 d after treatment, 0 to 100 scale (0 no effect, 100 complete control), read-out: Foxtail, Giant plant response rating
Procedure, shortened: as §1

[17] = tested on: pigweed (Amaranthus retroflexus); assay: Test A preemergence; conditions: Amaranthus retroflexus, pre-emergence, 240 h; for pest or weed control at 125 g/ha: 125 g ai/ha, Preemergence, visual injury rating after approximately 10 d, read-out: Pigweed plant response rating (0 to 100 scale, 0 is no effect, 100 is complete control); for pest or weed control at 500 g/ha: 500 g ai/ha, preemergence, visual injury rating about 10 d after treatment, 0 to 100 scale (0 no effect, 100 complete control), read-out: Pigweed plant response rating

SMILES	pest or weed control at 125 g/ha [1] [%]	Corn plant response rating (crop injury, 0 = no effect, 100 = complete kill) at 125 g/ha (corn (Zea mays)) [%]	pest or weed control at 125 g/ha [2] [%]	pest or weed control at 125 g/ha [3] [%]	pest or weed control at 125 g/ha (Kochia (Kochia scoparia) [4]) [%]	pest or weed control at 125 g/ha [5] [%]	pest or weed control at 125 g/ha [6] [%]	pest or weed control at 125 g/ha [7] [%]	plant injury at 125 g/ha [8] [%]	pest or weed control at 250 g/ha [9] [%]	pest or weed control at 250 g/ha [10] [%]	pest or weed control at 250 g/ha [11] [%]	pest or weed control at 250 g/ha (rice (Oryra sativa)) [%]	pest or weed control at 500 g/ha [12] [%]	pest or weed control at 125 g/ha [13] [%]	pest or weed control at 500 g/ha [13] [%]	pest or weed control at 125 g/ha [14] [%]	pest or weed control at 500 g/ha [14] [%]	pest or weed control at 125 g/ha (Kochia (Kochia scoparia) [15]) [%]	pest or weed control at 500 g/ha (Kochia (Kochia scoparia) [15]) [%]	further results
CSc1ccccc1NC(=O)[C@H]1C(=O)N(C)C[C@@H]1c1cc(F)cc(Cl)c1 [Compound 975]	0	20	50	20	40	50	90	30	20	40	90	0	0	90	90	100	30	40	50	90	pest or weed control at 125 g/ha [16]: 90%; pest or weed control at 500 g/ha [16]: 90%; pest or weed control at 125 g/ha [17]: 20%; pest or weed control at 500 g/ha [17]: 90%
Cc1c(F)cccc1NC(=O)[C@H]1C(=O)N(C)C[C@@H]1c1cc(F)cc(Cl)c1 [Compound 978]	0	60	50	50	0	60	90	0	70	65	100	0	30	90	90	90	60	90	40	90	pest or weed control at 125 g/ha [12]: 90%; pest or weed control at 125 g/ha [16]: 90%; pest or weed control at 500 g/ha [16]: 90%; pest or weed control at 125 g/ha [17]: 0%; pest or weed control at 500 g/ha [17]: 50%
COc1cc(OC)cc([C@H]2CN(C)C(=O)[C@@H]2C(=O)Nc2ccccc2SC)c1 [Compound 981]	0	0	0	0	0	0	70	0	0	0	0	0	0	50	90	100	0	60	0	90	pest or weed control at 125 g/ha [12]: 0%; pest or weed control at 125 g/ha [16]: 90%; pest or weed control at 500 g/ha [16]: 100%; pest or weed control at 125 g/ha [17]: 0%; pest or weed control at 500 g/ha [17]: 0%

Reference: patent publication US12077503B2, “Substituted cyclic amides and their use as herbicides” (FMC CORPORATION, priority 2015, dated 2024)
